From patent EP4603105A1, “PHARMACEUTICAL COMPOSITION CONTAINING CYCLIC COMPOUND HAVING SELECTIVE KRAS INHIBITORY EFFECT AGAINST HRAS AND NRAS” (CHUGAI SEIYAKU KABUSHIKI KAISHA, priority 2022, dated 2024)
*1 amine or outer side, *2 acyl side, *3 side chain or, on linkers, in order; H or OH if unused. Where a SMILES comes first, the peptide text is derived from it. Bridges are numbered along the chain shown (N, C = ends). [ ]: non-standard residue; d: D form. The star is where a group is joined. hPhe(3,5-F2-4-CF3) = N[C@@H](CCc1cc(F)c(C(F)(F)F)c(F)c1)C(=O)O; hPhe(3-Cl-4-CF3) = N[C@@H](CCc1ccc(C(F)(F)F)c(Cl)c1)C(=O)O; NPrPhe(4-CF3) = CCCN[C@@H](Cc1ccc(C(F)(F)F)cc1)C(=O)O; NEtPhe(4-Me) = CCN[C@@H](Cc1ccc(C)cc1)C(=O)O; X16 = O=C([C@@H](N[*:1])C1CC(F)(F)C1)[*:2]; NMeGly(cPent) = CN[C@H](C(=O)O)C1CCCC1; Hyp = O=C(O)[C@@H]1C[C@@H](O)CN1; NMeD = CN[C@@H](CC(=O)O)C(=O)O; NMeL = CN[C@@H](CC(C)C)C(=O)O; NMeNva = CCC[C@H](NC)C(=O)O; Morpholide = C1CN(*)CCO1; NMeA = CN[C@@H](C)C(=O)O; Ac5c = NC1(C(=O)O)CCCC1; Aze = O=C(O)[C@@H]1CCN1; Sar = CNCC(=O)O

What was measured:
HRAS wild-type protein = HRAS wild-type protein (Homo sapiens, UniProt P01112); test: Binding to HRAS by surface plasmon resonance (SPR), KD and KD ratio to KRAS
Procedure, shortened: (§1)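 GDP-loaded biotinylated Avi-tag RAS proteins (E. coli-expressed) captured on a Biotin CAPture chip at ~100–300 RU; single-cycle kinetics at 30°C, 100 µL/min, 75 s injections of rising compound concentrations. HBS pH 7.4 running buffer with 1 mM DTT, 10 mM MgCl2, 10 µM GDP, 4% DMSO. KD from 1:1 binding fit.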

[1] = molecular target: GDP-bound NRAS wild-type protein (Homo sapiens, UniProt P01111); test: Binding to NRAS by surface plasmon resonance (SPR), KD and KD ratio to KRAS
Procedure, shortened: as §1

[2] = tested on: human lung cancer strain NCI-H441; type: cell-based
Procedure, shortened: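 Readout: […] after the ATP-based reagent. Compound: serial dilutions in dimethyl sulfoxide.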

[3] = ratio of KD for HRAS wild-type protein to KD for KRAS
[4] = ratio of KD for GDP-bound NRAS wild-type protein to KD for KRAS
[5] = ratio of the KD value with respect to HRAS wild-type protein to the KD value with respect to KRAS
[6] = ratio of the KD value with respect to GDP-bound NRAS wild-type protein to the KD value with respect to KRAS

Sequence of HRAS wild-type protein (P01112 whole entry): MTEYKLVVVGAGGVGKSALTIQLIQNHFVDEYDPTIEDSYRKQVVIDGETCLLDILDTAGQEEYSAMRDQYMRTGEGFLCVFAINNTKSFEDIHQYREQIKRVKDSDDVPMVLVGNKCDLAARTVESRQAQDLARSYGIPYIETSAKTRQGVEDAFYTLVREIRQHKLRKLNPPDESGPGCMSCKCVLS
Sequence of GDP-bound NRAS wild-type protein (P01111 whole entry): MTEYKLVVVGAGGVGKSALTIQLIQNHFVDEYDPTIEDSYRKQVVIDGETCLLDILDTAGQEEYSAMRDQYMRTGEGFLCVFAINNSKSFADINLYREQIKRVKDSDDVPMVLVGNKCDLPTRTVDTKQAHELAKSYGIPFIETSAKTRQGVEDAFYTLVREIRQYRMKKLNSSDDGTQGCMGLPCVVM

| SMILES | HRAS /KRAS (HRAS wild-type protein; [3]) | NRAS /KRAS [1, 4] | IC50 [2] [nM] | HRAS /KRAS (HRAS wild-type protein; [5]) | NRAS /KRAS [1, 6] |
| --- | --- | --- | --- | --- | --- |
| CC[C@H](C)[C@@H]1NC(=O)[C@H](CC(C)C)N(C)C(=O)C[C@@H](C(=O)N2CCOCC2)N(C)C(=O)[C@H](C2CCCC2)N(C)C(=O)C2(CCC2)NC(=O)[C@@H]2C[C@@H](OCC3CC3)CN2C(=O)[C@H](CCc2cc(F)c(C(F)(F)F)c(F)c2)NC(=O)CN(C)C(=O)[C@H](Cc2ccc(C(F)(F)F)cc2)N2CCCCC[C@@H](C2=O)N(C)C(=O)CN(C)C1=O [PP1005] | A (a compound having 10 or more and less than 20 is denoted as A) | A (a compound having 10 or more and less than 20 is denoted as A) | 275 | – | – |
| CCC[C@H]1C(=O)N[C@@H]([C@@H](C)CC)C(=O)N(C2CC2)CC(=O)N(C)[C@H]2C/C=C\CCN(C2=O)[C@@H](Cc2ccc(C(F)(F)F)cc2)C(=O)N(C)CC(=O)N[C@@H](CCc2ccc(C(F)(F)F)c(OC)c2)C(=O)N2C[C@H](OCC)C[C@H]2C(=O)NC2(CC(C)(C)C2)C(=O)N(C)[C@@H](CC2CCC2)C(=O)N(C)[C@H](C(=O)N(C)C)CC(=O)N1C [PP2770] | A (a compound having 10 or more and less than 20 is denoted as A) | A (a compound having 10 or more and less than 20 is denoted as A) | 137 | – | – |
| CCO[C@@H]1C[C@H]2C(=O)NC3(CC(C)(C)C3)C(=O)N(C)[C@@H](C3CCCC3)C(=O)N(C)[C@H](C(=O)N(C)C)CC(=O)N(C)[C@H]3CCCCCCc4ccc(cc4)C[C@@H](C(=O)N(C)CC(=O)N[C@@H](CCc4ccc(Cl)c(Cl)c4)C(=O)N2C1)N1CC/C=C\C[C@@H](C1=O)N(C)C(=O)CN(C)C(=O)[C@H]([C@@H](C)CC)NC3=O [PP3071] | B (a compound having 3 or more and less than 10 is denoted as B) | A (a compound having 10 or more and less than 20 is denoted as A) | 6.6 | – | – |
| CC[C@H](C)[C@@H]1NC(=O)[C@H](CC(C)C)N(C)C(=O)C[C@@H](C(=O)N(C)C)N(C)C(=O)[C@H](C2CCCC2)N(C)C(=O)C2(CCCC2)NC(=O)[C@@H]2CC(F)(F)CN2C(=O)[C@H](CCc2cc(F)c(C(F)(F)F)c(F)c2)NC(=O)CN(C)C(=O)[C@H](Cc2ccc(C(F)(F)F)cc2)N2CCCCC[C@@H](C2=O)N(C)C(=O)CN(C)C1=O [PP0465] | – | – | 18 | B (a compound having 3 or more and less than 10 is denoted as B) | B (a compound having 3 or more and less than 10 is denoted as B) |
| CCO[C@@H]1C[C@H]2C(=O)NC3(CCC3)C(=O)N(C)[C@@H](C3CCCC3)C(=O)N(C)[C@H](C(=O)N(C)C)CC(=O)N(C)[C@@H](CC)C(=O)N[C@@H]([C@@H](C)CC)C(=O)N(C)CC(=O)N(C)[C@H]3CC=C(C)CN(C3=O)[C@@H](Cc3ccc(C(F)(F)F)cc3)C(=O)N(C)CC(=O)N[C@@H](CCc3cc(F)c(C(F)(F)F)c(F)c3)C(=O)N2C1 [PP0827] | C (A compound having a KD ratio of 0.1 or more and less than 3 is denoted as C) | C (A compound having a KD ratio of 0.1 or more and less than 3 is denoted as C) | 15.7 | – | – |
| CCCN1C(=O)CN(C)C(=O)CN(C)C(=O)[C@H](C2CC(F)(F)C2)NC(=O)[C@H](CC(C)C)N(C)C(=O)C[C@@H](C(=O)N2CCOCC2)N(C)C(=O)[C@H](C2CCCC2)N(C)C(=O)C2(CCCC2)NC(=O)[C@@H]2CCCN2C(=O)[C@H](CCc2cc(F)c(C(F)(F)F)c(F)c2)NC(=O)CN(C)C(=O)[C@@H]1Cc1ccc(C(F)(F)F)cc1 [PP0769] ([NMeL][X16][Sar][Sar][NPrPhe(4-CF3)][Sar][hPhe(3,5-F2-4-CF3)]P[Ac5c][NMeGly(cPent)][NMeD]-Morpholide; lactam N-11) | C (A compound having a KD ratio of 0.1 or more and less than 3 is denoted as C) | B (a compound having 3 or more and less than 10 is denoted as B) | 43.3 | – | – |
| CC[C@H](C)[C@@H]1NC(=O)[C@H](CC)N(C)C(=O)C[C@@H](C(=O)N2CCOCC2)N(C)C(=O)[C@H](C2CCCC2)N(C)C(=O)C2(CCCC2)NC(=O)[C@@H]2CCCN2C(=O)[C@H](CCc2cc(F)c(C(F)(F)F)c(F)c2)NC(=O)CN(C)C(=O)[C@H](Cc2ccc(C(F)(F)F)cc2)N2CCCCC[C@@H](C2=O)N(C)C(=O)CN(C)C1=O [PP0488] | – | – | 54.3 | B (a compound having 3 or more and less than 10 is denoted as B) | A (a compound having 10 or more and less than 20 is denoted as A) |
| CCC[C@H]1C(=O)N[C@@H]([C@@H](C)CC)C(=O)N(C2CC2)CC(=O)N(C)[C@H]2C/C=C\CCN(C2=O)[C@@H](Cc2ccc(C(F)(F)F)cc2)C(=O)N(C)CC(=O)N[C@@H](CCc2ccc(Cl)c(Cl)c2)C(=O)N2C[C@H](OCC)C[C@H]2C(=O)NC2(CC(C)(C)C2)C(=O)N(C)[C@@H](CC2CC2)C(=O)N(C)[C@H](C(=O)N(C)C)CC(=O)N1C [PP2817] | A (a compound having 10 or more and less than 20 is denoted as A) | A (a compound having 10 or more and less than 20 is denoted as A) | 55.2 | – | – |
| CCO[C@@H]1C[C@H]2C(=O)NC3(CCCC3)C(=O)N(C)[C@@H](C3CCCC3)C(=O)N(C)[C@H](C(=O)N3CCOCC3)CC(=O)N(C)[C@@H](CC(C)C)C(=O)N[C@@H]([C@@H](C)CC)C(=O)N(C)[C@@H](C)C(=O)N3CC[C@H]3C(=O)N(CC)[C@@H](Cc3ccc(C)cc3)C(=O)N(C)CC(=O)N[C@@H](CCc3ccc(C(F)(F)F)c(Cl)c3)C(=O)N2C1 [PP0014] ([NMeL]I[NMeA][Aze][NEtPhe(4-Me)][Sar][hPhe(3-Cl-4-CF3)][Hyp](Et)[Ac5c][NMeGly(cPent)][NMeD]-Morpholide; lactam N-11) | C (A compound having a KD ratio of 0.1 or more and less than 3 is denoted as C) | C (A compound having a KD ratio of 0.1 or more and less than 3 is denoted as C) | 2 | – | – |
| CCC[C@H]1C(=O)N[C@@H]([C@@H](C)CC)C(=O)N(C)[C@@H](C)C(=O)N2CC[C@H]2C(=O)N(CCC)[C@@H](Cc2ccc(C(F)(F)F)cc2)C(=O)N(C)CC(=O)N[C@@H](CCc2ccc(C(F)(F)F)c(Cl)c2)C(=O)N2CCC[C@H]2C(=O)NC2(CCCC2)C(=O)N(C)[C@@H](C2CCCC2)C(=O)N(C)[C@H](C(=O)N2CCOCC2)CC(=O)N1C [PP0193] ([NMeNva]I[NMeA][Aze][NPrPhe(4-CF3)][Sar][hPhe(3-Cl-4-CF3)]P[Ac5c][NMeGly(cPent)][NMeD]-Morpholide; lactam N-11) | C (A compound having a KD ratio of 0.1 or more and less than 3 is denoted as C) | C (A compound having a KD ratio of 0.1 or more and less than 3 is denoted as C) | 1.4 | – | – |
| CC[C@H](C)[C@@H]1NC(=O)[C@H](CC(C)C)N(C)C(=O)C[C@@H](C(=O)N2CCOCC2)N(C)C(=O)[C@H](C2CCCC2)N(C)C(=O)C2(CCCC2)NC(=O)[C@@H]2CCCN2C(=O)[C@H](CCc2ccc(C(F)(F)F)c(Cl)c2)NC(=O)CN(C)C(=O)[C@H](Cc2ccc(Cl)cc2)N2CCCCC[C@@H](C2=O)N(C)C(=O)CN(C)C1=O [PP0613] | – | – | 42.4 | B (a compound having 3 or more and less than 10 is denoted as B) | B (a compound having 3 or more and less than 10 is denoted as B) |
